Laboratory results taken from patent US20100056515A1, “BENZIMIDAZOLE COMPOUNDS” (priority 2006, published 2010).

| Structure (SMILES) | melting point [°C] |
| --- | --- |
| CCC(CC)c1ccc(OC)c2nc(Oc3ccc(OC(F)(F)F)cc3-n3ccnc3)n(C)c12 [Example 82, 7-(1-Ethylpropyl)-2-[2-(1H-imidazol-1-yl)-4-(trifluoromethoxy)phenoxy]-4-methoxy-1-methyl-1H-benzimidazole] | 168 to 169 |
| CCC(CC)c1ccc(Cl)c2nc(Nc3ccc(Cl)cc3Cl)n(CCO)c12 [Example 100, 2-[4-Chloro-2-[(2,4-dichlorophenyl)amino]-7-(1-ethylpropyl)-1H-benzimidazol-1-yl]ethanol] | 192 to 193 |
| CCC(CC)c1ccc(Cl)c2nc(Nc3c(C)cc(-n4ccc(C(F)(F)F)n4)cc3OC)n(C)c12 [Example 58, 4-Chloro-7-(1-ethylpropyl)-N-{2-methoxy-6-methyl-4-[3-(trifluoromethyl)-1H-pyrazol-1-yl]phenyl}-1-methyl-1H-benzimidazol-2-amine] | 249 to 251 |
| CCOc1ccc(C(CC)CC)c2c1nc(Oc1ccc(Cl)cc1Br)n2C [Example 72, 2-(2-Bromo-4-chlorophenoxy)-4-ethoxy-7-(1-ethylpropyl)-1-methyl-1H-benzimidazole] | 93 to 94 |
| CCC(CC)c1ccc(Cl)c2nc(Nc3c(C)cc([S+](C)[O-])cc3OC)n(C)c12 (stereo not drawn) [Example 46, 4-Chloro-7-(1-ethylpropyl)-N-[2-methoxy-6-methyl-4-(methylsulfinyl)phenyl]-1-methyl-1H-benzimidazol-2-amine] | 222 to 223 |
| CCC(CC)c1ccc(Cl)c2nc(Nc3c(C)cc(C(N)=O)cc3OC)n(C)c12 [Example 48, 4-{[4-Chloro-7-(1-ethylpropyl)-1-methyl-1H-benzimidazol-2-yl]amino}-3-methoxy-5-methylbenzamide] | 298 to 299 |
| CCC(CC)c1ccc(OC)c2nc(Nc3ccc(C(F)(F)F)cc3Cl)n(C)c12 [Example 16, N-[2-Chloro-4-(trifluoromethyl)phenyl]-7-(1-ethylpropyl)-4-methoxy-1-methyl-1H-benzimidazol-2-amine] | 170 to 171 |
| CCC(CC)c1ccc(Cl)c2nc(Nc3c(C)cc(Cl)cc3Br)n(C)c12 [Example 49, N-(2-Bromo-4-chloro-6-methylphenyl)-4-chloro-7-(1-ethylpropyl)-1-methyl-1H-benzimidazol-2-amine] | 232 to 233 |
| CCC(CC)c1ccc(OC)c2nc(Nc3ccc(Cl)cc3C(F)(F)F)n(C)c12 [Example 17, N-[4-Chloro-2-(trifluoromethyl)phenyl]-7-(1-ethylpropyl)-4-methoxy-1-methyl-1H-benzimidazol-2-amine] | 122 to 123 |
| CCC(CC)c1ccc(OC)c2nc(Nc3ccc(Cl)cc3N(C)C)n(C)c12 [Example 21, 4-Chloro-N^1-[7-(1-ethylpropyl)-4-methoxy-1-methyl-1H-benzimidazol-2-yl]-N^2,N^2-dimethylbenzene-1,2-diamine] | 47 to 49 |
| CCC(CC)c1ccc(Cl)c2nc(Nc3c(C)cc(-n4cccn4)cc3OC)n(C)c12 [Example 57, 4-Chloro-7-(1-ethylpropyl)-N-[2-methoxy-6-methyl-4-(1H-pyrazol-1-yl)phenyl]-1-methyl-1H-benzimidazol-2-amine] | 237 to 239 |
| CCC(CC)c1ccc(OC)c2nc(Oc3ccc(Cl)cc3CN(C)C)n(C)c12 [Example 9, 1-(5-Chloro-2-{[7-(1-ethylpropyl)-4-methoxy-1-methyl-1H-benzimidazol-2-yl]oxy}phenyl)-N,N-dimethylmethanamine] | 121 to 123 |
| CCC(CC)c1ccc(Cl)c2nc(Oc3cccc4c3CN(C)C4)n(C)c12 [Example 54, 4-Chloro-7-(1-ethylpropyl)-1-methyl-2-[(2-methyl-2,3-dihydro-1H-isoindol-4-yl)oxy]-1H-benzimidazole] | 99 to 100 |
| CCC(CC)c1ccc(Cl)c2nc(Nc3c(C)cc(S(C)(=O)=O)cc3OC)n(C)c12 [Example 47, 4-Chloro-7-(1-ethylpropyl)-N-[2-methoxy-6-methyl-4-(methylsulfonyl)phenyl]-1-methyl-1H-benzimidazol-2-amine] | 234 to 236 |
| CCC(CC)c1ccc(OC)c2nc(Oc3ccc(C)nc3C(F)(F)F)n(C)c12 [Example 11, 7-(1-Ethylpropyl)-4-methoxy-1-methyl-2-{[6-methyl-2-(trifluoromethyl)pyridin-3-yl]oxy}-1H-benzimidazole] | 135 to 137 |

Next, values leading:

| melting point [°C] | Structure (SMILES) |
| --- | --- |
| 146 to 148 | CCC(CC)c1ccc(Cl)c2nc(Oc3c(C)cc([Si](C)(C)C)cc3Cl)n(C)c12 |
| 116 to 117 | CCOc1ccc(C(CC)CC)c2c1nc(Oc1c(C)cc(Cl)cc1Cl)n2C [Example 73, 2-(2,4-Dichloro-6-methylphenoxy)-4-ethoxy-7-(1-ethylpropyl)-1-methyl-1H-benzimidazole] |
| 201 to 202 | CCC(CC(=O)O)c1ccc(Cl)c2nc(Oc3c(C)cc(Cl)cc3Cl)n(C)c12 (stereo not drawn) [Example 99, 3-[4-Chloro-2-(2,4-dichloro-6-methylphenoxy)-1-methyl-1H-benzimidazol-7-yl]pentanoic acid] |
| 163 to 164 | CCC(CC)c1ccc(Cl)c2nc(Oc3c(C)cc(Br)cc3Cl)n(C)c12 [Example 33, 2-(4-Bromo-2-chloro-6-methylphenoxy)-4-chloro-7-(1-ethylpropyl)-1-methyl-1H-benzimidazole] |
| 96 to 97 | CCc1ccc(C(CC)CC)c2c1nc(Oc1c(C)cc(Cl)cc1Cl)n2C [Example 71, 2-(2,4-Dichloro-6-methylphenoxy)-4-ethyl-7-(1-ethylpropyl)-1-methyl-1H-benzimidazole] |
| 149 to 151 | CCC(CC)c1ccc(Cl)c2nc(Oc3c(Cl)cc(OC(F)(F)F)cc3Br)n(C)c12 [Example 41, 2-[2-Bromo-6-chloro-4-(trifluoromethoxy)phenoxy]-4-chloro-7-(1-ethylpropyl)-1-methyl-1H-benzimidazole] |
| 175 to 177 | CCC(CC)c1ccc(OC)c2nc(Nc3ccc(OC(F)(F)F)cc3Cl)n(C)c12 [Example 18, N-[2-Chloro-4-(trifluoromethoxy)phenyl]-7-(1-ethylpropyl)-4-methoxy-1-methyl-1H-benzimidazol-2-amine] |
| 162 to 163 | CCC(CC)c1ccc(Cl)c2nc(Oc3c(Cl)cc(Cl)cc3NC)n(C)c12 [Example 28, 3,5-Dichloro-2-{[4-chloro-7-(1-ethylpropyl)-1-methyl-1H-benzimidazol-2-yl]oxy}-N-methylaniline] |
| 165 to 167 | CCC(CC)c1ccc(Cl)c2nc(Oc3c(Cl)cc(Cl)cc3Br)n(C)c12 [Example 23, 2-(2-Bromo-4,6-dichlorophenoxy)-4-chloro-7-(1-ethylpropyl)-1-methyl-1H-benzimidazole] |
